Test results reported in patent US20030180927A1, “Yeast protein methyltransferase hsl7p” (priority 2003, published 2003).

T1: Hs17p (Saccharomyces cerevisiae, UniProt P38274)
T1 construct: made in house; host or cells: S. cerevisiae hsl7-delta strain SPY103 (pGALFLAGHSL7, GAL1 promoter); anti-Flag immunoprecipitate
T1 sequence (P38274 1-827): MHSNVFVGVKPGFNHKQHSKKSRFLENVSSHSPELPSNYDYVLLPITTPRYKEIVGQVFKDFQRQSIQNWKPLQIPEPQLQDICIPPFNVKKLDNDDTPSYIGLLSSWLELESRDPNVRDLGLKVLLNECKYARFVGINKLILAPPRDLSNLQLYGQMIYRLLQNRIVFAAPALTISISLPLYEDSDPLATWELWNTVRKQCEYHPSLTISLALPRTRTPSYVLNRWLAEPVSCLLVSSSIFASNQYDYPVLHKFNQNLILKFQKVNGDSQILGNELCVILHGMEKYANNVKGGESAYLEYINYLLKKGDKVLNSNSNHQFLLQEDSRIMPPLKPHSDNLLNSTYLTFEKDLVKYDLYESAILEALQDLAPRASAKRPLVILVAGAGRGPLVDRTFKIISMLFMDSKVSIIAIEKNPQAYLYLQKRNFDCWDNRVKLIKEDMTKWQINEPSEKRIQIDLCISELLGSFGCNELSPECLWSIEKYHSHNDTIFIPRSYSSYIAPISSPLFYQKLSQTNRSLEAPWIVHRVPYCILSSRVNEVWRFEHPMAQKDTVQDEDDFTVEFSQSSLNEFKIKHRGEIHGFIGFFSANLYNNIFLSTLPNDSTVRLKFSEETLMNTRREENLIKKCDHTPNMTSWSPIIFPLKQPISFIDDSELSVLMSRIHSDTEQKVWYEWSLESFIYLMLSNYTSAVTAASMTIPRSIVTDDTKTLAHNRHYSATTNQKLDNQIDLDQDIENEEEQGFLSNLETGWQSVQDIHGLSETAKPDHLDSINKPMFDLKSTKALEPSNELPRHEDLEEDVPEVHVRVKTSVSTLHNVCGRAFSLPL


Experiments:
Hs17p = molecular target: T1, Hs17p; assay: In vitro methylation of myelin basic protein by Hs17p, inhibition; type: biochemical; conditions: [3H]AdoMet methyl donor, 30° C., 30 minutes, FIG. 2C
Procedure: (§1) In Vitro Methylation. Immunoprecipitated Flag-Hs17p was used to methylate histones and myelin basic protein with minor modifications of the method previously described. Each reaction contained 10 ig of substrate proteins (histones, MBP and cytochrome c). [^3H]AdoMet was added to a final concentration of 55 iCi/ml. The reaction contained 150 mM NaCl, 50 mM Tris.HCl (pH 8.0), 1% NP-40, 0.8 mM PMSF, 3 μg/ml antipain, 10 ig/ml benzamidine (10^4 kallikrein-inactivating units/ml) plus 1 μg/ml each of leupeptin, chymostatin and pepstatin. The 50 μl reactions were incubated at 30° C. for 30 minutes.
(§2) FIG. 2 illustrates the UV crosslinking of [^3H]AdoMet to Hs17p. […] After UV crosslinking, the 7.5% gel was dried and exposed to Biomax MR film for 15 days at −70° C. FIG. 2B show the in vitro methylation of protein substrates by Hs17p. Methylation reactions were done as described in “Experimental Procedures.” Each lane contained 10 μg at substrate protein. The position of the labeled bands coincided exactly with the location of the substrate proteins or the Coomassie blue-stained gel (not shown). The dried 15% gel was exposed to Biomax MR film for 21 days at −70° C. […] Protein sizes were calculated by the migration of broad range protein standards (BioRad).

JBP1 = JBP1 (Homo sapiens, UniProt O14744); assay: In vitro methylation of myelin basic protein by JBP1, inhibition; type: biochemical; conditions: [3H]AdoMet methyl donor, 30° C., 30 minutes, FIG. 2C
Procedure: as §1, §2

[1] = UV crosslinking of [3H]AdoMet; type: binding; conditions: immunoprecipitated protein, FIG. 2A
Procedure: UV Crosslinking. Crosslinking of [^3H]AdoMet to Hs17p and JBP1 was performed as described.
FIG. 2 illustrates the UV crosslinking of [^3H]AdoMet to Hs17p. […] After UV crosslinking, the 7.5% gel was dried and exposed to Biomax MR film for 15 days at −70° C. FIG. 2B show the in vitro methylation of protein substrates by Hs17p. Methylation reactions were done as described in “Experimental Procedures.” Each lane contained 10 μg at substrate protein. The position of the labeled bands coincided exactly with the location of the substrate proteins or the Coomassie blue-stained gel (not shown). The dried 15% gel was exposed to Biomax MR film for 21 days at −70° C. […] Protein methylation reactions were conducted as described in “Experimental Procedures,” except that homocysteine was added to the other reaction components on ice. The reactions were then incubated at 30° C. for 30 minutes. The 15% gel was exposed to Biomax MR film for 14 days at −70° C. Protein sizes were calculated by the migration of broad range protein standards (BioRad).

[2] = system: calf histones, bovine myelin basic protein and bovine cytochrome c; assay: In vitro methylation of protein substrates; type: biochemical; conditions: substrates H2A, H4 and myelin basic protein, 10 μg, FIG. 2B
Procedure: as §1, §2

JBP1, sequence (O14744 whole entry): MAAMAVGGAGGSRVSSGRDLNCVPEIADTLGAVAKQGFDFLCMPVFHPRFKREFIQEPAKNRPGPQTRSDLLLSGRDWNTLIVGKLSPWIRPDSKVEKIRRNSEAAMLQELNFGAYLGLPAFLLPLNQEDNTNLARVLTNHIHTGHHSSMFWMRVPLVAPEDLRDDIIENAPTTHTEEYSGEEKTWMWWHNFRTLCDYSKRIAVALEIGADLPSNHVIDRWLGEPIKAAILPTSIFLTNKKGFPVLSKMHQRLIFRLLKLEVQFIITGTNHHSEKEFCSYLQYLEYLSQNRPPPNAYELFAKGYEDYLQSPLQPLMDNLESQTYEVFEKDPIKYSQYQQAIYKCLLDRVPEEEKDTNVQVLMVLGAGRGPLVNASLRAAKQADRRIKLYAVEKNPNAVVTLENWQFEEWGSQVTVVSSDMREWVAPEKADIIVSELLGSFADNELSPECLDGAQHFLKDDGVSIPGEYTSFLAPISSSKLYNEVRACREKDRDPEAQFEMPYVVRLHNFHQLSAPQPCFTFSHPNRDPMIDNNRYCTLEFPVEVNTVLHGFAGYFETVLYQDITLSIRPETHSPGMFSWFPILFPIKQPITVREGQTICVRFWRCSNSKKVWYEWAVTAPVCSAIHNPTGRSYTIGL
JBP1, sequence (Q9BQA1 whole entry partner): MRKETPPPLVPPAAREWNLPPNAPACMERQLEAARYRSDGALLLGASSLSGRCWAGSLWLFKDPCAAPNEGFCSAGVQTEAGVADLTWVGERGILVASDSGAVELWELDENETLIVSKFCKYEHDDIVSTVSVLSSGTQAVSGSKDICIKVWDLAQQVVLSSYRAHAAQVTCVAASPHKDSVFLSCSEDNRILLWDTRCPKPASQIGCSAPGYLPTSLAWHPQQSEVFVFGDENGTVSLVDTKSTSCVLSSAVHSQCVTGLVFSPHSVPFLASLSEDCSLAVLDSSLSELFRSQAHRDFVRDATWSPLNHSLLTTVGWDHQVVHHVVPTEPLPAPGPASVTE

inhibition of myelin basic protein in vitro methylation by Hs17p (Hs17p) | inhibition of myelin basic protein in vitro methylation by JBP1 (JBP1) | UV crosslinking / binding of [3H]AdoMet [1] | Molecule | in vitro methylation of substrate protein [2]
blocks | blocks |  | N[C@@H](CCS)C(=O)O [homocysteine] | 
 |  | binds AdoMet | Hs17p: yeast protein methyltransferase, homologue of Janus kinase binding protein 1, expressed by HSL7 (protein, UniProt P38274 1-827, looked up, FLAG tag) Protein arginine …: MHSNVFVGVKPGFNHKQHSKKSRFLENVSSHSPELPSNYDYVLLPITTPRYKEIVGQVFKDFQRQSIQNWKPLQIPEPQLQDICIPPFNVKKLDNDDTPSYIGLLSSWLELESRDPNVRDLGLKVLLNECKYARFVGINKLILAPPRDLSNLQLYGQMIYRLLQNRIVFAAPALTISISLPLYEDSDPLATWELWNTVRKQCEYHPSLTISLALPRTRTPSYVLNRWLAEPVSCLLVSSSIFASNQYDYPVLHKFNQNLILKFQKVNGDSQILGNELCVILHGMEKYANNVKGGESAYLEYINYLLKKGDKVLNSNSNHQFLLQEDSRIMPPLKPHSDNLLNSTYLTFEKDLVKYDLYESAILEALQDLAPRASAKRPLVILVAGAGRGPLVDRTFKIISMLFMDSKVSIIAIEKNPQAYLYLQKRNFDCWDNRVKLIKEDMTKWQINEPSEKRIQIDLCISELLGSFGCNELSPECLWSIEKYHSHNDTIFIPRSYSSYIAPISSPLFYQKLSQTNRSLEAPWIVHRVPYCILSSRVNEVWRFEHPMAQKDTVQDEDDFTVEFSQSSLNEFKIKHRGEIHGFIGFFSANLYNNIFLSTLPNDSTVRLKFSEETLMNTRREENLIKKCDHTPNMTSWSPIIFPLKQPISFIDDSELSVLMSRIHSDTEQKVWYEWSLESFIYLMLSNYTSAVTAASMTIPRSIVTDDTKTLAHNRHYSATTNQKLDNQIDLDQDIENEEEQGFLSNLETGWQSVQDIHGLSETAKPDHLDSINKPMFDLKSTKALEPSNELPRHEDLEEDVPEVHVRVKTSVSTLHNVCGRAFSLPL | methylated
